Source: US20150148234A1, “HERBICIDE-RESISTANT SUNFLOWER PLANTS WITH MULTIPLE HERBICIDE RESISTANT ALLELES OF AHASL1 AND METHODS OF USE” (NIDERA S.A., priority 2013, published 2015)
Where “and” joins values, the source holds several entries; their conditions need not be identical. Equal values may be shown once. Marks after values point to notes of the source that are not given here.

How the values were obtained:
Test in all cases: metsulfuron whole plant greenhouse test (Example 5)
Type in all cases: in vivo
sunflower line B770, WT = conditions: 14 DAT
Description: (§1) Seeds were sown in Petri dishes and, after germination, plantlets were transplanted into 10 cm pots containing potting media consisting of equal parts of vermiculite, soil, and sand. Plants were grown in the greenhouse under natural light conditions supplemented with 400 W sodium halide lamps to provide a 16 hr daylength. Day/night temperatures were 25 and 20° C., respectively. At the V2-V4 stage (Schneiter & Miller, 1981) 20 plants of each genotype were randomly assigned to each treatment consisting of three metsulfuron methyl doses (0 or no treatment, 5 g ai/ha or a 1× rate, and 10 g ai/ha or a 2× rate). A zero-time biomass determination was also conducted. The experiment was arranged as a randomized complete block design (RCBD) with a full factorial arrangement of treatments and 20 replications (sunflower line×treatment).
(§2) For the zero-time dried weight determination, ten plants of each genotype were cut at the cotyledonal node on the day of herbicide application and dried at 60° C. for 48 hr. The rest of the plants were maintained for 14 days after herbicide treatment (DAT) and their height, Phytotoxicity Index (PI) and above ground dry biomass were recorded. Height was determined as the distance between the cotyledonal node and the apex of each plant. The above ground biomass data for each line was converted to biomass accumulation after application by subtracting the appropriate average zero-time biomass from each sample. Height and dry biomass were converted to a percentage of the untreated control for each line to allow direct comparisons between groups.
(§3) The data was subjected to an ANOVA and the means were compared by an LSD test.

[1] = test system: sunflower cmsGM40xBTSu-R1, A122T/P197L; conditions: 14 DAT; for Dry Matter accumulation (DMA) / Mean Height Reduction (PH): percentage of untreated control
Description: as §1, §2, §3

[2] = test system: sunflower line GM40, A122T/A122T; conditions: 14 DAT; for Dry Matter accumulation (DMA) / Mean Height Reduction (PH): percentage of untreated control
Description: as §1, §2, §3

[3] = test system: sunflower line L4, A122T/A122T; conditions: 14 DAT; for Dry Matter accumulation (DMA) / Mean Height Reduction (PH): percentage of untreated control
Description: as §1, §2, §3

[4] = test system: sunflower cmsGM40xL4, A122T/A122T; conditions: 14 DAT; for Dry Matter accumulation (DMA) / Mean Height Reduction (PH): percentage of untreated control
Description: as §1, §2, §3

[5] = test system: sunflower line BTSu-R1, P197L/P197L; conditions: 14 DAT, percentage of untreated control
Description: as §1, §2, §3

[6] = test system: sunflower line GM1606, A122T/A122T; conditions: 14 DAT; for Dry Matter accumulation (DMA) / Mean Height Reduction (PH): percentage of untreated control
Description: as §1, §2, §3

[7] = 2X (10 g ai./ha), percentage of untreated control

SMILES: COC(=O)c1ccccc1S(=O)(=O)NC(=O)Nc1nc(C)nc(OC)n1 [metsulfuron]
- Phytotoxicity Index (PI) (0-9) (sunflower line B770, WT; 1X (5g ai./ha)): 8.50 ^bc
- Dry Matter accumulation (DMA) (sunflower line B770, WT; 1X (5g ai./ha), percentage of untreated control): 28.43 ^b %
- Phytotoxicity Index (PI) (0-9) (sunflower line B770, WT; 2X (10 g ai./ha)): 9.00 ^d
- Dry Matter accumulation (DMA) (sunflower line B770, WT; [7]): 28.77 ^b %
- Mean Height Reduction (PH) (sunflower line B770, WT; [7]): 18.20 ^a %
- Phytotoxicity Index (PI) (0-9) ([1]; 1X (5g ai./ha)): 0.00 ^a
- Dry Matter accumulation (DMA) ([1]; 1X (5g ai./ha)): 74.4% and 74.36 ^c %
- Mean Height Reduction (PH) ([1]; 1X (5g ai./ha)): 77.04 ^b %
- Dry Matter accumulation (DMA) ([1]; 2X (10 g ai./ha)): 72.66 ^c %
- Mean Height Reduction (PH) ([1]; 2X (10 g ai./ha)): 62% and 61.99 ^b %
- Phytotoxicity Index (PI) (0-9) ([2]; 1X (5g ai./ha)): 9.00 ^d
- Dry Matter accumulation (DMA) ([2]; 1X (5g ai./ha)): 25.73 ^ab %
- Mean Height Reduction (PH) ([2]; 1X (5g ai./ha)): 21.39 ^a %
- Phytotoxicity Index (PI) (0-9) ([2]; 2X (10 g ai./ha)): 9.00 ^d
- Dry Matter accumulation (DMA) ([2]; 2X (10 g ai./ha)): 20.69 ^a %
- Mean Height Reduction (PH) ([2]; 2X (10 g ai./ha)): 21.17 ^a %
- Phytotoxicity Index (PI) (0-9) ([3]; 1X (5g ai./ha)): 8.25 ^b
- Dry Matter accumulation (DMA) ([3]; 1X (5g ai./ha)): 25.40 ^ab %
- Mean Height Reduction (PH) ([3]; 1X (5g ai./ha)): 19.47 ^a %
- Phytotoxicity Index (PI) (0-9) ([3]; 2X (10 g ai./ha)): 8.5 ^c
- Dry Matter accumulation (DMA) ([3]; 2X (10 g ai./ha)): 18.80 ^a %
- Mean Height Reduction (PH) ([3]; 2X (10 g ai./ha)): 18.73 ^a %
- Phytotoxicity Index (PI) (0-9) ([4]; 1X (5g ai./ha)): 8.67 ^d
- Dry Matter accumulation (DMA) ([4]; 1X (5g ai./ha)): 19.90 ^a %
- Mean Height Reduction (PH) ([4]; 1X (5g ai./ha)): 22.45 ^a %
- Phytotoxicity Index (PI) (0-9) ([4]; 2X (10 g ai./ha)): 8.82 ^cd
- Dry Matter accumulation (DMA) ([4]; 2X (10 g ai./ha)): 18.23 ^a %
- Mean Height Reduction (PH) ([4]; 2X (10 g ai./ha)): 20.56 ^a %
- Dry Matter accumulation (DMA) ([5]; 1X (5g ai./ha)): 88% and 88.1% and 88.10 ^d %
- Plant height, % of untreated control ([5]; 1X (5g ai./ha)): 79.01 ^b %
- Dry Matter accumulation (DMA) ([5]; 2X (10 g ai./ha)): 77% and 76.69 ^c %
- Plant height, % of untreated control ([5]; 2X (10 g ai./ha)): 80.85 ^c %
- Phytotoxicity Index (PI) (0-9) ([6]; 1X (5g ai./ha)): 8.70 ^d
- Dry Matter accumulation (DMA) ([6]; 1X (5g ai./ha)): 30.39 ^b %
- Mean Height Reduction (PH) ([6]; 1X (5g ai./ha)): 21.55 ^a %
- Phytotoxicity Index (PI) (0-9) ([6]; 2X (10 g ai./ha)): 9.00 ^d
- Dry Matter accumulation (DMA) ([6]; 2X (10 g ai./ha)): 20.45 ^a %
- Mean Height Reduction (PH) ([6]; 2X (10 g ai./ha)): 21.70 ^a %
